Consider one compound from article PMC11035424 (2024).

Assay [1] has as its system c-myc (DNA, G4) TGAGGGTGGGTAGGGTGGGTAA
Nature of the assay: ITC. The settings on record: K+ (50 mM potassium phosphate); 50 mM KH2PO4-K2HPO4 pH 7.0, 25 °C; abstract misprints exponent as 10^-6.

Assay [2] relates to c-kit (DNA, G4) AGGGAGGGCGCTGGGAGGAGGG
Nature of the assay: ITC. Particulars: K+ (50 mM potassium phosphate); 50 mM KH2PO4-K2HPO4 pH 7.0, 25 °C.

In assay [3] the test system is VEGF (DNA, G4) CGGGGCGGGCCTTGGGCGGGGT
As to the kind of experiment: ITC. The settings on record: K+ (50 mM potassium phosphate); 50 mM KH2PO4-K2HPO4 pH 7.0, 25 °C.

The subject of assay [4] is TA-core (DNA, G4) TAGGGTTAGGGTTAGGGTTAGGG
Nature of the assay: ITC. Particulars: K+ (50 mM potassium phosphate); 50 mM KH2PO4-K2HPO4 pH 7.0, 25 °C.

The test system of assay [5] is c-myc (DNA, G4) TGAGGGTGGGTAGGGTGGGTAA
Nature of the assay: CD melting at 265 nm. Particulars: K+ (50 mM potassium phosphate); 50 mM potassium phosphate pH 7.0; 1.5 µM DNA, 3.0 µM compound; printed ≧; printed Tms differ by 6.6.

The subject of assay [6] is VEGF (DNA, G4) CGGGGCGGGCCTTGGGCGGGGT
Nature of the assay: CD melting at 265 nm. The settings on record: K+ (50 mM potassium phosphate); 50 mM potassium phosphate pH 7.0; 1.5 µM DNA, 3.0 µM compound; printed ≧.

The test system of assay [7] is TA-core (DNA, G4) TAGGGTTAGGGTTAGGGTTAGGG
As to the kind of experiment: CD melting at 265 nm. Particulars: K+ (50 mM potassium phosphate); 50 mM potassium phosphate pH 7.0; 1.5 µM DNA, 3.0 µM compound.

For assay [8], the system named is dsoligo (12-ss(-)/12-ss(+)) (DNA, duplex) GCGAAACCTCCC/GGGAGGTTTCGC
As to the kind of experiment: UV melting at 260 nm. Particulars: K+ (50 mM potassium phosphate); 50 mM potassium phosphate pH 7.0; 1.5 µM DNA, 3.0 µM compound.

The subject of assay [9] is c-myc (DNA, G4) TGAGGGTGGGTAGGGTGGGTAA
Nature of the assay: absorption titration (383 nm, Stootman fit). Particulars: K+ (50 mM potassium phosphate); 50 mM KH2PO4-K2HPO4 pH 7.0; 8 µM compound.

In assay [10] the test system is c-myc120 (DNA, G4) GAGGTATTTCGGGAGGTTTCGCCCCACGCCCTCTGCTTTGGGAACCCGGGAGGGGCGCTTATGGTGAGGGTGGGGAGGGTGGGGAAGGGGGAGGAGAGCGGTATTCGTGGTGTTCGGAGT
As to the kind of experiment: pulldown on streptavidin magnetic beads, qPCR. Particulars: K+ (50 mM potassium phosphate); 50 mM potassium phosphate pH 7.0, room temperature; immobilised compound; more than 50% recovery. In general terms: Quantitative PCR measures a nucleic acid by following its amplification.

The test system of assay [11] is c-myc-mut95 (DNA, single strand) GAGGTATTTCGGGAGGTTTCGCCACCTTCTTCACTCTCTTCACTCTCTTCATAAGCGCCCCTCCCGGGTTCCCCGGTATTCGTGGTGTTCGGAGT
Nature of the assay: pulldown on streptavidin magnetic beads, qPCR. The settings on record: K+ (50 mM potassium phosphate); 50 mM potassium phosphate pH 7.0, room temperature; immobilised compound; 2 fmol DNA.

Assay [12] relates to c-myc (DNA, G4) TGAGGGTGGGTAGGGTGGGTAA
Nature of the assay: pulldown on streptavidin magnetic beads, gel electrophoresis. Particulars: K+ (50 mM potassium phosphate); 5 µM compound, 5 µM DNA, pH 7.0, room temperature.

Assay [13] relates to dsoligo (12-ss(-)/12-ss(+)) (DNA, duplex) GCGAAACCTCCC/GGGAGGTTTCGC
Described as above. Particulars: K+ (50 mM potassium phosphate); 5 µM compound, 5 µM DNA, pH 7.0, room temperature.

The structures appear in SMILES notation.

The term ΔTm denotes the shift of the melting midpoint relative to a reference. With `CN1CCCNC(=O)CC[C@H](NC(=O)CCOCCOCCOCCOCCNC(=O)CCCC[C@@H]2SC[C@@H]3NC(=O)N[C@@H]32)C(=O)NCCCN(C)CCCN2C(=O)c3ccc4c5c(ccc(c35)C2=O)C(=O)N(CCC1)C4=O`, the K in assay [1] was 3.9e+06 M⁻¹; in [2] it was 200000 M⁻¹; in [3], 820000 M⁻¹; in assay [4], 2.1e+06 M⁻¹; in [9], 8.9e+06 M⁻¹. For the same compound, the ΔTm was more than 5.4 °C in assay [5], more than 7.0 °C in assay [6], 4.8 °C in assay [7] and 0.1 °C in assay [8]. For the same compound, the binding result in assay [10] was “yes”; in [11], “no”; in assay [12], “yes”; in [13] it was “no”.
